Laboratory results taken from patent US12325676B2, “Cationic lipid compound and composition for delivery of nucleic acids and use thereof” (Shenzhen Rhegen Biotechnology Co., Ltd., priority 2022, dated 2025).

Experiments:
[1] = Encapsulation rate of mRNA-loaded lipid nanoparticles (Ribogreen kit); type: physicochemical
Procedure: (§1) Luciferase mRNA was diluted in 10-100 mM citrate buffer at pH 4.0; the lipid components (cationic lipids shown in the present disclosure: DSPC:cholesterol:PEG lipids (DMG-PEG2000)) were dissolved in ethanol at a molar ratio of 50:10:38.5:1.5.
(§2) 3 mL of a mRNA buffer and 1 mL of a lipid solution were loaded into two 5 mL syringes respectively, and the syringes were installed on a microfluidic syringe pump. Chips were connected to the syringes and syringe pump flow rate was set. Clicking the start button of the syringe pump caused injection into the chip at a flow rate ratio of 3:1. Under observation of the color of the product at the exit of the chip, after discarding the first 5 milky white droplets (about 100 μL), the back-end sample was collected into an EP tube. The collected product was placed in a dialysis bag and dialyzed for 6 h (MWCO: 100 KDa) in 10 mM PBS (pH 7.4) intervals. Subsequently, after being concentrated by ultrafiltration to the desired concentration, the lipid nanoparticles were filtered through a 0.22 μm sterile filter and then stored at 4° C.
(§3) Tests were performed to calculate the encapsulation rate of the products according to the instructions of Ribogreen kit. Particle size and polydispersity index (PDI) detection as well as zeta potential analysis was performed on a Malvern Zetasizer nano instrument using standard assays.

[2] = Particle size, PDI and zeta potential of mRNA-loaded lipid nanoparticles (Malvern Zetasizer nano); type: physicochemical
Procedure: as §1, §2, §3

[3] = as above; type: physicochemical; conditions: Table 4 batch; EPO mRNA LNP prepared as Example 20
[4] = Encapsulation rate of mRNA-loaded lipid nanoparticles (Ribogreen kit); type: physicochemical; conditions: Table 4 batch; EPO mRNA LNP prepared as Example 20
[5] = test system: BALB/c mice; test: In vivo expression of luciferase mRNA delivered by LNP, tail intravenous injection, small animal imaging; conditions: Table 3, 5 μg mRNA, female BALB/c mice, DLin-MC3-DMA = 100
Procedure: LUC-mRNA-lipid nanoparticles containing 5 μg mRNA (see SEQ ID NO: 1 in the Patent Application Publication CN114380724A for the corresponding nucleotide sequence of LUC-mRNA) were injected via tail intravenous injection in 6-8 week old female BALB/c mice, prepared as in Example 19. 100 μg of D-Luciferin Potassium Salt was injected via tail intravenous injection into the mice at specific time points and assayed using the PerkinElmer Small Animal Imaging System. Fluc is commonly used in mammalian cell cultures to measure gene expression and cell viability, and it emits biological fluorescent light in the presence of the substrate […]. The basic characteristics of the mRNA used include ARCA cap structure, polyA tail length of 120 nt, and complete substitution of pseudouridine.
The effect of delivering luciferase mRNA using more cationic lipids were validated according to the methods of Example 20 and Example 21.

[6] = test system: BALB/c mice; test: In vivo EPO protein expression after tail i.v. injection of EPO-mRNA LNP, serum ELISA; conditions: 6 hours after tail i.v. injection of 20 μg EPO-mRNA-lipid nanoparticles, female Balb/c mice
Procedure: In the example, the effects of in vivo transfection of erythropoietin (EPO) by various cationic liposomes were compared. Nanoparticles were prepared in the same manner as in Example 20, and the nucleotide sequence corresponding to the EPO mRNA used is given in CN114380724B, SEQ ID NO:2. After preparation, 20 μg of EPO-mRNA-lipid nanoparticles were injected via tail intravenous injection in 6-8 week female Balb/c mice. 6 hours later the mice were subjected to blood sampling from the eye frame. After centrifugation to separate the serum, EPO protein expression was determined using ELISA. The basic characteristics of the mRNA used include ARCA cap structure, polyA tail length of 100-120 nt, and complete substitution of pseudouridine.

[7] = test system: C57BL6 mice; test: Intratumoral injection of luciferase mRNA LNP, fluorescence of tumor and liver; type: in vivo; conditions: luciferase mRNA LNP 25 μL/2.5 μg intratumoral, B 16F 10 tumor in C57BL6 mice, imaging after 24 h (FIGS. 6 and 7)
Procedure: Different types of lipid nanoparticles encapsulating luciferase mRNA in were prepared accordance with the preparation of Example 20. Tumors were injected subcutaneously in the right abdomen of 6-8 week female C57BL6 mice at 5×10^5 B 16F 10 cells (from CAS Cell Bank, CSTR:19375.09.3101MOUTCM36)/mouse, and tumor growth was observed and recorded periodically. On the 8th day after tumor inoculation, the length (L, mm) and width (D, mm) of the tumors were measured by using a vernier caliper, and the tumor volume (V) was calculated according to the formula V=(L×D^2)/2. Mice with tumor volume in the range of 80-120 mm^3 were taken and randomly grouped, and intratumorally injected with different types of lipid nanoparticles encapsulating luciferase mRNA at the volume of 25 μL/2.5 μg. Anatomical imaging was performed after 24 h to detect the fluorescence intensity of the mouse liver and tumor (as shown in FIGS. 6 and 7). […] This indicates better in situ tumor expression and lower liver […], which is suitable for encapsulation and delivery of some tumor therapy-related nucleic acid drugs.

[8] = Table 1, Luciferase mRNA LNP, cationic lipid:DSPC:cholesterol:DMG-PEG2000 50:10:38.5:1.5 molar
[9] = Table 3 batch, luciferase mRNA LNP prepared as Example 20

Encapsulation rate (%) [1, 8] [%]	PDI [2, 8]	Particle size (nm) [2, 8] [nm]	Zeta potential (mV) [2, 8] [mV]	PDI [3]	Particle size (nm) [3] [nm]	Encapsulation rate (%) [4] [%]	Encapsulation rate (%) [1, 9] [%]	PDI [2, 9]	Particle size (nm) [2, 9] [nm]	Compound	relative fluorescence intensity (%) [5] [%]	EPO concentration [6] [pg/mL]	brightness (fluorescence intensity) at the tumor [7]	brightness (fluorescence intensity) in the liver [7]
87.8	0.12	97.3	0.49							CCCCCCCCCCOCC(C)C(=O)OCCCCCN(CCO)CCCCCCCC(=O)OC(CCCCCCCC)CCCCCCCC (stereo not drawn) [Compound 2]				
87.5	0.10	113.9	1.95							CCCCCCCCCCOCC(CC)C(=O)OCCCCCN(CCO)CCCCCCCC(=O)OC(CCCCCCCC)CCCCCCCC (stereo not drawn) [Compound 3]				
83.7	0.21	94.4	0.39							CCCCCCCCCCOCC(CCC)C(=O)OCCCCCN(CCO)CCCCCCCC(=O)OC(CCCCCCCC)CCCCCCCC (stereo not drawn) [Compound 4]				
63.9	0.17	95.6	0.79							CCCCCCCCOCC(CCCC)C(=O)OCCCCCN(CCO)CCCCCCCC(=O)OC(CCCCCCCC)CCCCCCCC (stereo not drawn) [Compound 6]				
95.7	0.22	119.0	−3.27							CCCCCCCCC(CCCCCCCC)OC(=O)CCCCCCCN(CCO)CCCCCCC(=O)OCCOCCCCCCC [Compound 14]				
				0.12	75.4	96.5	95.6	0.20	90.9	CCCCCCCCOCC(C)C(=O)OCCCCCN(CCO)CCCCCCCOC(=O)C(CCCCCCCC)CCCCCCCC (stereo not drawn) [Compound 16]	574 ± 102	3.01e+07		
92.5	0.10	90.9	−0.15	0.09	74.0	96.9	97.6	0.11	68.2	CCCCCCCCC(CCCCCCCC)C(=O)OCCCCCCCN(CCO)CCCCCCCOC(=O)C(C)COCCCCCC (stereo not drawn) [Compound 17]	686 ± 45	3.25e+07		
				0.11	81.7	96.5	97.0	0.10	75.4	CCCCCCCCC(CCCCCCCC)OC(=O)CCCCCCCN(CCO)CCCCCCCOC(=O)C(C)COCCCCCC (stereo not drawn) [Compound 23]	764 ± 39	4.11e+07		
95.9	0.04	127.6	5.29							CCCCCCCCOCC(C)C(=O)OCCCCCN(CCCCCCCC(=O)OC(CCCCCCCC)CCCCCCCC)CCN(CC)CC (stereo not drawn) [Compound 28]				
95.6	0.03	105.5	−1.31							CCCCCCCCCCSCCC(=O)OCCCCCN(CCO)CCCCCCCC(=O)OC(CCCCCCCC)CCCCCCCC [Compound 29]				
95.7	0.11	121.2	−0.26							CCCCCCCCCCSCC(C)C(=O)OCCCCCN(CCO)CCCCCCCC(=O)OC(CCCCCCCC)CCCCCCCC (stereo not drawn) [Compound 30]				
93.9	0.11	98.4	0.55							CCCCCCCCSCC(CC)C(=O)OCCCCCN(CCO)CCCCCCCC(=O)OC(CCCCCCCC)CCCCCCCC (stereo not drawn) [Compound 36]				
94.9	0.17	123.4	−7.02							CCCCCCCCCCSCCOC(=O)CCCCCCCN(CCO)CCCCCCCC(=O)OC(CCCCCCCC)CCCCCCCC [Compound 41]				
96.4	0.21	104.1	−2.82	0.17	82.5	95.5	97.1	0.10	71.1	CCCCCCCCSCC(C)C(=O)OCCCCCN(CCO)CCCCCCCOC(=O)C(CCCCCCCC)CCCCCCCC (stereo not drawn) [Compound 44]	843 ± 52	4.89e+07		
				0.15	81.0	93.9	96.8	0.15	80.9	CCCCCCCCC(CCCCCCCC)C(=O)OCCCCCCCN(CCO)CCCCCCCOC(=O)C(C)CSCCCCCC (stereo not drawn) [Compound 45]	559 ± 33	3.46e+07		
95.6	0.11	101.3	−4.12							CCCCCCCCSC(CCCCCC)C(=O)OCCCCCCN(CCO)CCCCCCOC(=O)C(CCCCCC)CCCCCCCC (stereo not drawn) [Compound 46]				
92.5	0.10	94.2	−0.14							CCCCCCCCSCC(C)C(=O)OCCCCCN(CCCO)CCCCCCCC(=O)OC(CCCCCCCC)CCCCCCCC (stereo not drawn) [Compound 48]				
				0.14	75.3	95.0	98.0	0.11	91.0	CCCCCCCCC(CCCCCCCC)OC(=O)CCCCCCCN(CCO)CCCCCCCOC(=O)C(C)CSCCCCCC (stereo not drawn) [Compound 51]	734 ± 51	6.68e+07	higher brightness at the tumor	lower brightness in the liver
91.1	0.13	102.3	7.37							CCCCCCCCSCCOC(=O)CCCCCCCN(CCCCCCCC(=O)OC(CCCCCCCC)CCCCCCCC)CCN(C)C [Compound 55]				
94.1	0.24	122.8	7.09							CCCCCCCCCCSCCC(=O)OCCCCCN(CCCCCCCC(=O)OC(CCCCCCCC)CCCCCCCC)CCN(C)C [Compound 57]				
